Results taken from patent US20240217926A1, “1,6-NAPHTHALENEDITHIOL PRODUCT AND PROCESS FOR PRODUCING THE SAME” (SUGAI CHEMICAL INDUSTRY CO., LTD., priority 2022, published 2024).

Legend:
[1] = Heat stability by differential scanning calorimetry (DSC); assay type: physicochemical; details: heat stability data by DSC
Description: Specifically, 2,7-naphthalenedithiol (2,7-form) described in the Patent Document 1 has a melting point of 186 to 188° C., 2,6-naphthalenedithiol (2,6-form) has a melting point of 196 to 197° C., and 1,5-naphthalenedithiol (1,5-form) described in the Nonpatent Document 1 has a melting point of 120 to 121° C. Thus, these positional isomers of naphthalenedithiol each have a high melting point and are expected to show boiling point elevation due to hydrogen bonds of mercapto groups. […] Thus, it is technically difficult to adopt purification of these naphthalenedithiols by distillation at a relatively high temperature. For example, when 1,5-form, 2,6-form, and 2,7-form are tried to be distilled under vacuum, an outflow (or exit) line is to be maintained at a high temperature in order to prevent crystallization. However, such a high temperature of the outflow line causes not only easy re-evaporation of the naphthalenedithiols in the outflow line but also crystallization and clogging of the naphthalenedithiols in a subsequent line, thus making it impossible to operate the distillation.

[2] = Dissolubility (maximum dissolved concentration in organic solvents, by HPLC); assay type: physicochemical; details: 25° C.; for Dissolubility DMF: N,N-dimethylformamide; for Dissolubility PGMEA: propylene glycol monomethyl ether acetate; for Dissolubility THF: tetrahydrofuran
Description: In each of predetermined solvents described in the Table below, a sample was mixed at a temperature of 25° C., and the dissolubility of the sample was evaluated. In more detail, the sample was added to a predetermined amount of a solvent until the sample could not be dissolved, and the sample content of the liquid phase (the solvent phase) of the resulting mixture was analyzed using an HPLC (“SPD-20A” manufactured by SHIMADZU CORPORATION), and thus the concentration (the maximum dissolved concentration) of the sample in the liquid phase (the solvent phase) was determined as a solubility.

temperature at which weight decreases by 5% or more [1]	Dissolubility DMF [2]	Dissolubility Ethyl acetate [2]	Dissolubility Methanol [2]	Dissolubility PGMEA [2]	Dissolubility THF [2]	Dissolubility Toluene [2]	Structure (SMILES)
176 °C	34.4 % by mass	7.05 % by mass	1.08 % by mass	7.44 % by mass	29.0 % by mass	7.26 % by mass	Sc1cccc2c(S)cccc12 [Comparative Example 5, 1,5-naphthalenedithiol]
196 °C	3.54 % by mass	0.65 % by mass	0.11 % by mass	0.73 % by mass	4.03 % by mass	0.64 % by mass	Sc1ccc2cc(S)ccc2c1 [Comparative Example 6, 2,6-naphthalenedithiol]
188 °C	7.75 % by mass	0.90 % by mass	0.16 % by mass	1.05 % by mass	5.24 % by mass	0.76 % by mass	Sc1ccc2ccc(S)cc2c1 [Comparative Example 7, 2,7-naphthalenedithiol]
–	–	–	19.3 % by mass	–	–	–	Sc1ccc2c(S)cccc2c1 [Example 1, 1,6-naphthalenedithiol]
